Laboratory results as given in patent US12637454B2, “Heterocyclic monoacylglycerol lipase (MAGL) inhibitors” (Hoffmann-La Roche Inc., priority 2019, dated 2026).

Target: T1, MAGL (Homo sapiens, UniProt Q99685)
T1 sequence (Q99685 1-303): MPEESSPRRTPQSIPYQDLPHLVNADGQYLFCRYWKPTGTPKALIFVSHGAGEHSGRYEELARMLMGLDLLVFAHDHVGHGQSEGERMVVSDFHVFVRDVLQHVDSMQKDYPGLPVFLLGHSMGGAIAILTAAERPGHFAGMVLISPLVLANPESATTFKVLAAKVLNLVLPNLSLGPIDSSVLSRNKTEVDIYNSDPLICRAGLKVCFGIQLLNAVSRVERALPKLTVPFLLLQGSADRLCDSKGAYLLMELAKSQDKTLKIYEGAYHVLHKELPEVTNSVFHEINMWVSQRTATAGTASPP
Test: 2-AG assay (MAGL inhibitory activity, hydrolysis of 2-arachidonoylglycerol followed by mass spectrometry)
Format: biochemical
Conditions: 50 pM MAGL, 8 μM 2-arachidonoylglycerol, 15 min preincubation, 30 min incubation at RT
Description: Compounds were profiled for MAGL inhibitory activity by determining the enzymatic activity by following the hydrolysis of the natural substrate 2-arachidonoylglycerol (2-AG) resulting in arachidonic acid, which can be followed by mass spectrometry. This assay is hereinafter abbreviated “2-AG assay”.
The 2-AG assay was carried out in 384 well assay plates (PP, Greiner Cat #784201) in a total volume of 20 μL. Compound dilutions were made in 100% DMSO (VWR Chemicals 23500.297) in a polypropylene plate in 3-fold dilution steps to give a final concentration range in the assay from 12.5 μM to 0.8 pM. 0.25 μL compound dilutions (100% DMSO) were added to 9 μL MAGL in assay buffer (50 mM TRIS (GIBCO, 15567-027), 1 mM EDTA (Fluka, 03690-100 mL), 0.01% (v/v) Tween. After shaking, the plate was incubated for 15 min at RT. To start the reaction, 10 μL 2-arachidonoylglycerol in assay buffer was added. The final concentrations in the assay was 50 pM MAGL and 8 μM 2-arachidonoylglyerol. After shaking and 30 min incubation at RT, the reaction was quenched by the addition of […] of ACN containing 4 μM of d8-arachidonic acid. The amount of arachidonic acid was traced by an online SPE system (Agilent Rapidfire) coupled to a triple quadrupole mass spectrometer (Agilent 6460). A C18 SPE cartridge (G9205A) was used in an ACN/water liquid setup. The mass spectrometer was operated in negative electrospray mode following the mass transitions 303.1→259.1 for arachidonic acid and 311.1→267.0 for d8-arachidonic acid. The activity of the compounds was calculated based on the ratio of intensities [arachidonic acid/d8-arachidonic acid].

| IC50 | SMILES |
| --- | --- |
| 41.5 nM | O=C(c1cccc(N2CCC[C@H](O)C2)c1Cl)N1CCN2C[C@@](O)(c3ccc(F)c(Cl)c3)CC[C@@H]2C1 [Example 47, [(7S,9aR)-7-(3-chloro-4-fluorophenyl)-7-hydroxy-3,4,6,8,9,9a-hexahydro-1H-pyrido[1,2-a]pyrazin-2-yl]-[2-chloro-3-[(3S)-3-hydroxypiperidin-1-yl]phenyl]methanone] |
| 292 nM | O=C(c1cccc(N2CCC[C@@H](O)C2)c1Cl)N1CCN2C[C@@](O)(c3ccc(F)c(Cl)c3)CC[C@@H]2C1 [Example 48, [(7S,9aR)-7-(3-chloro-4-fluorophenyl)-7-hydroxy-3,4,6,8,9,9a-hexahydro-1H-pyrido[1,2-a]pyrazin-2-yl]-[2-chloro-3-[(3R)-3-hydroxypiperidin-1-yl]phenyl]methanone] |
| 80.8 nM | O=C(c1cccc(N2CCC(O)CC2)c1Cl)N1CCN2C[C@@](O)(c3ccc(Cl)cc3)CC[C@@H]2C1 [Example 49, [(7S,9aR)-7-(4-chlorophenyl)-7-hydroxy-3,4,6,8,9,9a-hexahydro-1H-pyrido[1,2-a]pyrazin-2-yl]-[2-chloro-3-(4-hydroxypiperidin-1-yl)phenyl]methanone] |
| 10.9 nM | O=C(c1cccc(N2C[C@H](O)[C@@H](O)C2)c1Cl)N1CCN2C[C@@](O)(c3ccc(F)c(Cl)c3)CC[C@@H]2C1 [Example 51, [(7S,9aR)-7-(3-chloro-4-fluorophenyl)-7-hydroxy-3,4,6,8,9,9a-hexahydro-1H-pyrido[1,2-a]pyrazin-2-yl]-[2-chloro-3-[(3S,4S)-3,4-dihydroxypyrrolidin-1-yl]phenyl]methanone] |
| 84.2 nM | O=C(c1cccc(N2CC(F)(CO)C2)c1Cl)N1CCN2C[C@@](O)(c3ccc(F)c(Cl)c3)CC[C@@H]2C1 [Example 52, [(7S,9aR)-7-(3-chloro-4-fluorophenyl)-7-hydroxy-3,4,6,8,9,9a-hexahydro-1H-pyrido[1,2-a]pyrazin-2-yl]-[2-chloro-3-[3-fluoro-3-(hydroxymethyl)azetidin-1-yl]phenyl]methanone] |
| 79.7 nM | O=C(c1cccc(N2CC(CO)C2)c1Cl)N1CCN2C[C@@](O)(c3ccc(F)c(Cl)c3)CC[C@@H]2C1 [Example 53, [(7S,9aR)-7-(3-chloro-4-fluorophenyl)-7-hydroxy-3,4,6,8,9,9a-hexahydro-1H-pyrido[1,2-a]pyrazin-2-yl]-[2-chloro-3-[3-(hydroxymethyl)azetidin-1-yl]phenyl]methanone] |
| 3.08 nM | O=C(c1cccc(-c2cc[nH]n2)c1Cl)N1CCN2C[C@@](O)(c3ccc(F)c(Cl)c3)CC[C@@H]2C1 [Example 54, [(7S,9aR)-7-(3-chloro-4-fluorophenyl)-7-hydroxy-3,4,6,8,9,9a-hexahydro-1H-pyrido[1,2-a]pyrazin-2-yl]-[2-chloro-3-(1H-pyrazol-3-yl)phenyl]methanone] |
| 9.04 nM | O=C(c1cccc(-c2cc[nH]n2)c1F)N1CCN2C[C@@](O)(c3ccc(F)c(Cl)c3)CC[C@@H]2C1 [Example 55, [(7S,9aR)-7-(3-chloro-4-fluorophenyl)-7-hydroxy-3,4,6,8,9,9a-hexahydro-1H-pyrido[1,2-a]pyrazin-2-yl]-[2-fluoro-3-(1H-pyrazol-3-yl)phenyl]methanone] |
| 37.5 nM | O=C(c1cccc(-c2ccsn2)c1F)N1CCN2C[C@@](O)(c3ccc(Cl)cc3)CC[C@@H]2C1 [Example 56, [(7S,9aR)-7-(4-chlorophenyl)-7-hydroxy-3,4,6,8,9,9a-hexahydro-1H-pyrido[1,2-a]pyrazin-2-yl]-[2-fluoro-3-(1,2-thiazol-3-yl)phenyl]methanone] |
| 0.74 nM | O=C(c1cccc(-c2[nH]ncc2F)c1Cl)N1CCN2C[C@@](O)(c3ccc(F)c(Cl)c3)CC[C@@H]2C1 [Example 57, [(7S,9aR)-7-(3-chloro-4-fluorophenyl)-7-hydroxy-3,4,6,8,9,9a-hexahydro-1H-pyrido[1,2-a]pyrazin-2-yl]-[2-chloro-3-(4-fluoro-1H-pyrazol-5-yl)phenyl]methanone] |
| 14.2 nM | O=C(c1cccc(-c2ncsn2)c1Cl)N1CCN2C[C@@](O)(c3ccc(F)c(Cl)c3)CC[C@@H]2C1 [Example 58, [(7S,9aR)-7-(3-chloro-4-fluorophenyl)-7-hydroxy-3,4,6,8,9,9a-hexahydro-1H-pyrido[1,2-a]pyrazin-2-yl]-[2-chloro-3-(1,2,4-thiadiazol-3-yl)phenyl]methanone] |
| 11.2 nM | COc1cccc(C(=O)N2CCN3C[C@@](O)(c4ccc(F)c(F)c4)CC[C@@H]3C2)c1Cl [Example 59, [(7S,9aR)-7-(3,4-difluorophenyl)-7-hydroxy-3,4,6,8,9,9a-hexahydro-1H-pyrido[1,2-a]pyrazin-2-yl]-(2-chloro-3-methoxyphenyl)methanone] |
| 118 nM | COc1cccc(C(=O)N2CCN3C[C@](O)(c4ccc(F)c(F)c4)CC[C@H]3C2)c1Cl [Example 60, [(7R,9aS)-7-(3,4-difluorophenyl)-7-hydroxy-3,4,6,8,9,9a-hexahydro-1H-pyrido[1,2-a]pyrazin-2-yl]-(2-chloro-3-methoxyphenyl)methanone] |
| 14 nM | O=C(c1cccc(-c2ccn[nH]2)c1F)N1CCN2C[C@@](O)(c3ccc(F)c(F)c3)CC[C@@H]2C1 [Example 61, [(7S,9aR)-7-(3,4-difluorophenyl)-7-hydroxy-3,4,6,8,9,9a-hexahydro-1H-pyrido[1,2-a]pyrazin-2-yl]-[2-fluoro-3-(1H-pyrazol-5-yl)phenyl]methanone] |
| 20.5 nM | O=C(c1cccc(-c2[nH]ncc2F)c1F)N1CCN2C[C@@](O)(c3ccc(F)c(F)c3)CC[C@@H]2C1 [Example 62, [(7S,9aR)-7-(3,4-difluorophenyl)-7-hydroxy-3,4,6,8,9,9a-hexahydro-1H-pyrido[1,2-a]pyrazin-2-yl]-[2-fluoro-3-(4-fluoro-1H-pyrazol-5-yl)phenyl]methanone] |
| 39.4 nM | O=C(c1cccc(N2CC(O)C2)c1Cl)N1CCN2C[C@@](O)(c3ccc(F)c(F)c3)CC[C@@H]2C1 [Example 63, [(7S,9aR)-7-(3,4-difluorophenyl)-7-hydroxy-3,4,6,8,9,9a-hexahydro-1H-pyrido[1,2-a]pyrazin-2-yl]-[2-chloro-3-(3-hydroxyazetidin-1-yl)phenyl]methanone] |
| 13.4 nM | O=C(c1cccc(-c2[nH]ncc2F)c1Cl)N1CCN2C[C@@](O)(c3ccc(C(F)(F)F)cn3)CC[C@@H]2C1 [Example 64] |
| 68.4 nM | O=C(c1cccc2c1CCN2)N1CCN2C[C@@](O)(c3ccc(F)c(Cl)c3)CC[C@@H]2C1 [Example 65, [(7S,9aR)-7-(3-chloro-4-fluorophenyl)-7-hydroxy-3,4,6,8,9,9a-hexahydro-1H-pyrido[1,2-a]pyrazin-2-yl]-(2,3-dihydro-1H-indol-4-yl)methanone] |
| 172 nM | O=C(c1cncc(-c2cc[nH]n2)c1Cl)N1CCN2C[C@@](O)(c3ccc(Cl)cc3)CC[C@@H]2C1 [Example 66, [(7S,9aR)-7-(4-chlorophenyl)-7-hydroxy-3,4,6,8,9,9a-hexahydro-1H-pyrido[1,2-a]pyrazin-2-yl]-[4-chloro-5-(1H-pyrazol-3-yl)pyridin-3-yl]methanone] |
| 14.6 nM | O=C(c1cccc(-c2ccsn2)c1Cl)N1CCN2C[C@@](O)(c3ccc(Cl)cc3)CC[C@@H]2C1 [Example 67, [(7S,9aR)-7-(4-chlorophenyl)-7-hydroxy-3,4,6,8,9,9a-hexahydro-1H-pyrido[1,2-a]pyrazin-2-yl]-[2-chloro-3-(1,2-thiazol-3-yl)phenyl]methanone] |
| 82.5 nM | O=C(c1cccc(-c2cnsc2)c1Cl)N1CCN2C[C@@](O)(c3ccc(Cl)cc3)CC[C@@H]2C1 [Example 68, [(7S,9aR)-7-(4-chlorophenyl)-7-hydroxy-3,4,6,8,9,9a-hexahydro-1H-pyrido[1,2-a]pyrazin-2-yl]-[2-chloro-3-(1,2-thiazol-4-yl)phenyl]methanone] |
| 126 nM | O=C(c1cccc(-c2ccsn2)c1Cl)N1CCN2C[C@@](O)(c3ccc(C(F)(F)F)cn3)CC[C@@H]2C1 [Example 69, [(7R,9aR)-7-hydroxy-7-[5-(trifluoromethyl)pyridin-2-yl]-3,4,6,8,9,9a-hexahydro-1H-pyrido[1,2-a]pyrazin-2-yl]-[2-chloro-3-(1,2-thiazol-3-yl)phenyl]methanone] |
| 994 nM | Cc1c(C(=O)N2CCN3C[C@@](O)(c4ccc(Cl)cc4)CC[C@@H]3C2)cncc1-c1cc[nH]n1 [Example 70, [(7S,9aR)-7-(4-chlorophenyl)-7-hydroxy-3,4,6,8,9,9a-hexahydro-1H-pyrido[1,2-a]pyrazin-2-yl]-[4-methyl-5-(1H-pyrazol-3-yl)pyridin-3-yl]methanone] |
